Measurements taken from patent US20250034216A1, “STEREOSELECTIVE COVALENT LIGANDS FOR ONCOGENIC AND IMMUNOLOGICAL PROTEINS” (The Scripps Research Institute, priority 2021, published 2025).

Biological target: T1, CLUH_C333 (Homo sapiens, UniProt O75153)
T1 construct: endogenous in cells; host or cells: 22Rv1
T1 sequence (O75153 1-1309): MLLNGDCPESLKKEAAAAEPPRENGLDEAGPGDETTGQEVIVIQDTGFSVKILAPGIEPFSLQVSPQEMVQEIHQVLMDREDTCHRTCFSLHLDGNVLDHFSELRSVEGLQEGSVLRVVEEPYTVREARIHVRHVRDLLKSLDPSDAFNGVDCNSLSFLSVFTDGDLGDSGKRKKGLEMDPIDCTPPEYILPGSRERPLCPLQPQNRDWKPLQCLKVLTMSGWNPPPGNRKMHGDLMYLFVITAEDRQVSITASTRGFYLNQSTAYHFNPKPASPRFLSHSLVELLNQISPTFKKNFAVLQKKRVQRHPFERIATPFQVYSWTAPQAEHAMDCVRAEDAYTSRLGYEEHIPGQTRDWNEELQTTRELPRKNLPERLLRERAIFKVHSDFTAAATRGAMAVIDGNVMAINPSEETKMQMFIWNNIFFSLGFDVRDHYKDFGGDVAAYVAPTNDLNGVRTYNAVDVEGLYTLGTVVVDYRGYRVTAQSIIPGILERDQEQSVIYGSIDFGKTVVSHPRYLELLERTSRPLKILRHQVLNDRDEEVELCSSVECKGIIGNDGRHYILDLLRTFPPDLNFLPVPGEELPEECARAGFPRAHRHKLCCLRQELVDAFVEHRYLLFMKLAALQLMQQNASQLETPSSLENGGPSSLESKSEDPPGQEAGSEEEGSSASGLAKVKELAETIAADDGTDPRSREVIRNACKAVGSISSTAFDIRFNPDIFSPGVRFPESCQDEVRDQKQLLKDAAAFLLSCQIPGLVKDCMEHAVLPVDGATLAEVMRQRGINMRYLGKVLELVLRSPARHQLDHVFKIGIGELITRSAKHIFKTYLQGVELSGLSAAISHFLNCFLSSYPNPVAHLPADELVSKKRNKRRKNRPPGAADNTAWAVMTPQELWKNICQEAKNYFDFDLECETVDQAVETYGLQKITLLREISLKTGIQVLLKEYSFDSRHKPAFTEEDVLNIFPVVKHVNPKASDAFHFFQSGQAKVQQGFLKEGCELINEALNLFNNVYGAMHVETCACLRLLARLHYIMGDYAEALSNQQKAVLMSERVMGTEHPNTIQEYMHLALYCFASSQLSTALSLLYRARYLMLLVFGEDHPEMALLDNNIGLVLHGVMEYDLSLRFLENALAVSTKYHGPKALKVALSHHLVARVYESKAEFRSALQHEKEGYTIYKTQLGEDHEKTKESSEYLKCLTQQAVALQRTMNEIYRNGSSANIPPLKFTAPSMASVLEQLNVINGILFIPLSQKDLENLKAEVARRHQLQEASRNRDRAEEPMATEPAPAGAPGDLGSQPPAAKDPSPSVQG
Assay: IA-DTB cysteine engagement
Format: binding
Conditions: 22Rv1 cells, 20 μM probe, 1 h, relative to DMSO
Outline: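 First, cells are exposed to electrophilic probes in situ. Next, lysates are labeled with IA-DTB (1 h, ambient temperature), reduced, alkylated and trypsin-digested. Then, IA-DTB peptides are enriched on streptavidin, TMT-labeled and analyzed, with ratios taken against DMSO channels.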

Row | % engagement CLUH_C333 [%] | Structure (SMILES)
1 | −4.5 | C=CC(=O)N1C[C@H](c2ccc(Br)cc2)[C@H]1C(=O)Nc1cccc2cccnc12 [MY-3B, (2S,3S)-1-acryloyl-3-(4-bromophenyl)-N-(quinolin-8-yl)azetidine-2-carboxamide]
2 | 13 | C=CC(=O)N1C[C@H](c2ccc(Br)cc2)[C@@H]1C(=O)Nc1cccc2cccnc12 [MY-1B, (2R,3S)-1-acryloyl-3-(4-bromophenyl)-N-(quinolin-8-yl)azetidine-2-carboxamide]
3 | 0.5 | C=CC(=O)N1C[C@H](c2ccc(Br)cc2)[C@H]1C(=O)Nc1cccc2cccnc12 [MY-3A, (2S,3S)-1-acryloyl-3-(4-bromophenyl)-N-(quinolin-8-yl)azetidine-2-carboxamide]
4 | 81 | C=CC(=O)N1C[C@@H](c2ccc(Br)cc2)[C@H]1C(=O)Nc1cccc2cccnc12 [MY-1A, (2S,3R)-1-acryloyl-3-(4-bromophenyl)-N-(quinolin-8-yl)azetidine-2-carboxamide]
